Literature values as cited in patent US20060287301A1, “Novel formulations for phenothiazines, including fluphenazine and its derivatives” (priority 2005, published 2006).
Where a name gives a salt, the structure may show the parent alone. Read-outs that look alike come from different tables or passages of the source.

Conditions: words only

Row | solubility in water (HCl) | solubility in water | Structure (SMILES)
1 | poorly soluble | – | OCCN1CCN(CCCN2c3ccccc3Sc3ccc(C(F)(F)F)cc32)CC1 [Fluphenazine HCl]
2 | – | marginally water soluble | OCCN1CCN(CCCN2c3ccccc3Sc3ccc(C(F)(F)F)cc32)CC1 [Fluphenazine, fluphenazine]
